Consider 5 compounds from ChEMBL document CHEMBL1208745, “6-Phenyl-1H-imidazo[4,5-c]pyridine-4-carbonitrile as cathepsin S inhibitors” (Bioorg Med Chem Lett, 2010).

Molecules are shown by their SMILES. Calls of active or inactive are those of the source. No cut-off for these calls is given here. A value given as a limit tells only on which side of the number the result lay.

The IC50 is the midpoint of a concentration-inhibition curve. Usually half-life stands for how long it takes for the measured level to halve. In general, bioavailability refers to dose-corrected exposure relative to a reference, in per cent. Low readings indicate poor availability, high ones good availability. A word on the Kp: it is the ratio of the level in a tissue or fluid to that in plasma or blood.

Data set [1] addresses Cathepsin B (Homo sapiens) (UniProt P07858). Put plainly: Inhibition of human cathepsin B by fluorescence assay.
Data set [2] deals with Procathepsin L (Homo sapiens) (UniProt P07711). Put plainly: Inhibition of human cathepsin L by fluorescence assay.
Sequence of Procathepsin L (Homo sapiens) (P07711 114-333 limits assumed): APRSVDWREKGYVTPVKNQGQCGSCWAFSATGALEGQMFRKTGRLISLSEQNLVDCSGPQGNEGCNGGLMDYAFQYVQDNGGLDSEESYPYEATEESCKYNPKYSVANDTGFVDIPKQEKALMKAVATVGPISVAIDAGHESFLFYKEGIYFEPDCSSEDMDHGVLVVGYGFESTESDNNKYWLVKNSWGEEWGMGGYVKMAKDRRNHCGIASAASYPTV
Data set [3] has as its target T1, Cathepsin S (Homo sapiens, UniProt P25774). Kind of data set: Inhibition of human cathepsin S by fluorescence assay.
In data set [4] the target is T2, Cathepsin K (Homo sapiens, UniProt P43235).
T2 sequence (P43235 whole entry): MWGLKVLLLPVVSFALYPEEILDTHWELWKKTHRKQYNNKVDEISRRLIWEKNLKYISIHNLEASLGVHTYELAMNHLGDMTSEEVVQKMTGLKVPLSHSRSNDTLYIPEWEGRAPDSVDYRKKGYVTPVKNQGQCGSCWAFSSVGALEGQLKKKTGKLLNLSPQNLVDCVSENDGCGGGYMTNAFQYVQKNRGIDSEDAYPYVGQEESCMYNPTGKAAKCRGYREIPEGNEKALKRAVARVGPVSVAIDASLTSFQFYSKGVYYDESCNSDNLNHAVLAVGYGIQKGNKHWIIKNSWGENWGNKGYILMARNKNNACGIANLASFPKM
Put plainly: Inhibition of human cathepsin K by fluorescence assay.

Data set [5] deals with T1, Cathepsin S. Put plainly: Inhibition of cathepsin S-mediated proteolytic cleavage of MHC2 associated invariant chain in human JY cells assessed as accumulation of lip10 by Western blot analysis. The format is cell-based. For orientation: Immunoblotting shows a protein as a band on a membrane.
Data set [6] in a line: Chemical stability of the compound assessed as half life at 1.25 mM at pH 7.5 by nitrile war-head stability assay in presence of GSH. The data set is classed as physicochemical.
For data set [7], the target named is T3, Cathepsin S (Mus musculus, UniProt O70370). Kind of data set: Inhibition of mouse cathepsin S by fluorescence assay.
T3 sequence (O70370 whole entry): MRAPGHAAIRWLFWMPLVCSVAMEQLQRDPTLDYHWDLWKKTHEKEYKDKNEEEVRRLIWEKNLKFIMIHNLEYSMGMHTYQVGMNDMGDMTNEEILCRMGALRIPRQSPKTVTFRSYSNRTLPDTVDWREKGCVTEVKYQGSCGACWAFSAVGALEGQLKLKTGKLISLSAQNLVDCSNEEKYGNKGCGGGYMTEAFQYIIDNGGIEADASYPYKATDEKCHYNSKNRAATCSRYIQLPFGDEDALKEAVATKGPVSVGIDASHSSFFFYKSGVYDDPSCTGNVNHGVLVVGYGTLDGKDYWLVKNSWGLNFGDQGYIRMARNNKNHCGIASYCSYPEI
Data set [8] has as its system Mus musculus. Kind of data set: Induction of Lip10 accumulation in C57/BL6 mouse spleen at 0.3 mg/kg, po after 4 hrs by Western blot analysis. The data set is classed as functional, organism-based. More on the design: dose 0.3 mg/kg. Conditions: C57Bl/6.
Data set [9] in a line: Plasma clearance in Wistar rat at 2 mg/kg, iv and 10 mg/kg, po. The format is ADME, organism-based.
Data set [10] can be described thus: Volume of distribution at steady state in Wistar rat at 2 mg/kg, iv and 10 mg/kg, po. The format is ADME, organism-based. Conditions: in vivo, read-out: Vdss.
A short description of data set [11]: Oral bioavailability in Wistar rat at 10 mg/kg. The format is ADME, organism-based. To be noted: in vivo.
The target in data set [12] is T3, Cathepsin S. Kind of data set: Inhibition of cathepsin S-mediated proteolytic cleavage of MHC2 associated invariant chain in mouse splenocytes assessed as accumulation of lip10 by Western blot analysis. The data set is classed as cell-based.
Data set [13] can be described thus: Ratio of drug level in spleen to plasma in C57/BL6 mouse at 0.3 mg/kg, po. The format is ADME, organism-based, C57Bl/6. More on the design: dose 0.3 mg/kg, route oral.
A short description of data set [14]: Chemical stability of the compound assessed as half life at 1.24 mM at pH 7.5 by nitrile war-head stability assay in presence of GSH. The format is physicochemical.
Data set [15] can be described thus: Chemical stability of the compound assessed as half life at 1.15 mM at pH 7.5 by nitrile war-head stability assay in presence of GSH. The data set is classed as physicochemical.

T1 sequence (P25774 whole entry): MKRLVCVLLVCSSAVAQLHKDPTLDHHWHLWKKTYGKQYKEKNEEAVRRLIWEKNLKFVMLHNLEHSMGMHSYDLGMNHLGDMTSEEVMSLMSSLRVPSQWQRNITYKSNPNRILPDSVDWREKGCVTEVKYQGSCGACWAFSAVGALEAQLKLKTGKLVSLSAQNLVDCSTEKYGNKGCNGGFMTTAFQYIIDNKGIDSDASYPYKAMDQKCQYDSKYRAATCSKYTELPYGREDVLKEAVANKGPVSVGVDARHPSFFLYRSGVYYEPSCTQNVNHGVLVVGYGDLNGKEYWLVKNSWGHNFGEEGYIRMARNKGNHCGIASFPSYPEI

Consider `CCN1CCN(CCCOc2ccc(-c3cc4c(ncn4C)c(C#N)n3)cc2C(F)(F)F)CC1`, for which the inhibition result in [1] and in data set [2] was “inactive” each time. Besides, the IC50 in data set [3] was 7.2 nM; in data set [4], 331 nM; in data set [5], 63 nM; in [7], 2.6 nM; in data set [12], 6.5 nM. Also, in data set [6], the half-life at 1250 µM is over 100 h. In addition, the result in data set [8] was Active. This compound also showed a clearance in data set [9] of 28 mL/min/kg. The Vd in [10] came out at 2 L/kg. For the same compound, in [11], the bioavailability was determined as 9%. Also, the Kp in [13] stood at 50.
On to `Cn1cnc2c(C#N)nc(-c3ccc(OCc4ccccn4)c(C(F)(F)F)c3)cc21`, for which the inhibition result in data set [1] and in data set [2] was “inactive” throughout. Moreover, the IC50 in [3] was determined as 20 nM; in data set [4] it was 2290 nM; in [5], 853 nM; in data set [7] it was 2.5 nM. This compound showed a clearance in data set [9] of 327 mL/min/kg. The Vd in data set [10] was 0.7 L/kg. The compound further yielded a bioavailability in data set [11] of 54%.
Regarding `CN1CCN(CCCOc2ccc(-c3cccc(C#N)n3)cc2C(F)(F)F)CC1`, the half-life at 1240 µM in data set [14] was over 100 h.
As for `CN(C)CCCOc1ccc(-c2cc3c(ncn3C)c(C#N)n2)cc1C(F)(F)F`, the inhibition entry in data set [1] and in [2] was “inactive” throughout. Further, the 50% inhibitory concentration (IC50) in data set [3] amounted to 41 nM; in data set [4], 776 nM; in [5] it was 84 nM; in data set [7] it was 2.6 nM. In data set [9], the clearance amounted to 10 mL/min/kg. Also, the Vd in [10] was determined as 58 L/kg. The compound also had a bioavailability in data set [11] of 58%.
For the compound `CN1CCN(CCCOc2ccc(-c3ccnc(C#N)n3)cc2C(F)(F)F)CC1`, the half-life at 1150 µM in data set [15] is under 0.25 h.
